The target in one assay is T1, Human PD-L1/PD-1 (Homo sapiens, UniProt Q9NZQ7).
T1 construct: made in house; host or cells: HEK293T
Description: HTRF PD-1-Ig/PD-L1-His binding assay (human PD-L1). The following applies: cluster symbol; read-out: HTRF IC50 cluster. In a few lines:
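The time-resolved fluorescence signal comes from Eu-cryptate anti-Ig (1 nM) and APC anti-His (20 nM) antibodies bound to a PD-1-Ig/PD-L1-His complex. Both partners lack transmembrane regions.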
(In general: Time-resolved FRET reads energy transfer from a long-lived donor to a nearby acceptor.)

Assay [1] concerns the target T2, LK35.2-hPD-L1 cells / PE-labeled PD-1-Ig (Homo sapiens, UniProt Q9NZQ7).
T2 construct: expressed in transfected cells; host or cells: LK35.2 mouse B cell line
Description: LK35.2-hPD-L1 cell binding high-content screening assay. In kind it is cell-based. The following applies: cluster symbol, read-out: CBA IC50 cluster. In a few lines:
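Mouse LK35.2 B cells stably over-expressing human PD-L1, cultured overnight, treated with compound plus PE-labeled human PD-1-Ig (1 nM final) in RPMI/10% FCS for 1 h at 37 °C. After washing, bound fluorescence quantified by high-content imaging.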

The mark [2] stands for this setting: cell binding assay, cell line not given.
The mark [3] stands for this setting: cell line of CBA not given (LK35.2-hPD-L1 or 293T-hPD-L1).

Like-named read-outs stand apart in the source and are kept apart here. Positions of bridges follow the written chain, without caps; N, C: chain ends. Non-standard residues stand in square brackets, D forms with d. Residues, ends and D or L forms follow the SMILES beside them. ξ: configuration not given here. Phe(4-F) = N[C@@H](Cc1ccc(F)cc1)C(=O)O; Bta = N[C@@H](Cc1csc2ccccc12)C(=O)O; Hyp = O=C(O)[C@@H]1C[C@@H](O)CN1; NMeF = CN[C@@H](Cc1ccccc1)C(=O)O; NMeNle = CCCC[C@H](NC)C(=O)O; NMeM = CN[C@@H](CCSC)C(=O)O; NMeA = CN[C@@H](C)C(=O)O; Dab = NCC[C@H](N)C(=O)O; Dap = NC[C@H](N)C(=O)O; ξC = NC(CS)C(=O)O; Sar = CNCC(=O)O

T1 sequence (Q9NZQ7 with tags, fused parts or gaps): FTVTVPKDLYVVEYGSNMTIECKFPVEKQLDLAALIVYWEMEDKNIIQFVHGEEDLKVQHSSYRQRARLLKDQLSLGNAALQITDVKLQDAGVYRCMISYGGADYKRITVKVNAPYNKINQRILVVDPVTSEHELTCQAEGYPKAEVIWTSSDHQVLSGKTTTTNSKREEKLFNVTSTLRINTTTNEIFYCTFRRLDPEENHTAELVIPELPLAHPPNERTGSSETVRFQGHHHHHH
T2 sequence (Q9NZQ7 19-290): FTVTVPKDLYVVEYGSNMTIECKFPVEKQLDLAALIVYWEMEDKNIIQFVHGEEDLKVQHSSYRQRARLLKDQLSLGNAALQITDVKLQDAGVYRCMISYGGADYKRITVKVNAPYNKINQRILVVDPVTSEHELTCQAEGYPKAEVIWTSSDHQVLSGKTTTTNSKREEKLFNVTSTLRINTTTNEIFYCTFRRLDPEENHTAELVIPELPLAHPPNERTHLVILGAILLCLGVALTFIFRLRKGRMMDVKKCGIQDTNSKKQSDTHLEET

Turning to `CCCC[C@H]1C(=O)N(C)[C@@H](CCCC)C(=O)N[C@@H](CCCNC(=N)N)C(=O)N[C@H](C(=O)NCC(N)=O)CSCC(=O)N[C@@H](Cc2ccc(O)cc2)C(=O)N(C)[C@@H](C)C(=O)N[C@@H](CC(N)=O)C(=O)N2CCC[C@H]2C(=O)N[C@@H](CN)C(=O)N[C@@H](CC(C)C)C(=O)N2C[C@H](O)C[C@H]2C(=O)N[C@@H](Cc2c[nH]c3ccccc23)C(=O)N[C@@H](CC(=O)O)C(=O)N[C@@H](Cc2c[nH]c3ccccc23)C(=O)N1C` [Example 5057] ({CH2CO}-Y[NMeA]NP[Dap]L[Hyp]WDW[NMeNle][NMeNle]RCG-NH2; thioether N-14), the results for the IC50 (at Human PD-L1/PD-1; in assay [1] (setting [2])) were 6.76 to 30.3 nM and 4.78 to 72.9 nM, respectively.
Taken in the same sequence, the figures for `CCCC[C@H]1C(=O)N(C)[C@@H](CCSC)C(=O)N[C@@H](CCCNC(=N)N)C(=O)NC(C(=O)NCC(N)=O)CSCC(=O)N[C@@H](Cc2ccc(O)cc2)C(=O)N(C)[C@@H](C)C(=O)N[C@@H](CC(N)=O)C(=O)N2CCC[C@H]2C(=O)N[C@@H](Cc2cnc[nH]2)C(=O)N[C@@H](CO)C(=O)N2C[C@H](O)C[C@H]2C(=O)N[C@@H](Cc2c[nH]c3ccccc23)C(=O)N[C@@H](CO)C(=O)N[C@@H](Cc2csc3ccccc23)C(=O)N1C` (stereo partly shown) [Example 9108] ({CH2CO}-Y[NMeA]NPHS[Hyp]WS[Bta][NMeNle][NMeM]R[ξC]G-NH2; thioether N-14) were 0.385 to 6.74 nM and 0.158 to 4.71 nM.
With `CC(C)C[C@@H]1NC(=O)[C@H](Cc2ccc(O)cc2)NC(=O)[C@H](Cc2c[nH]c3ccccc23)NC(=O)CN(C)C(=O)[C@H](Cc2ccc(O)cc2)NC(=O)[C@H](Cc2ccccc2)N(C)C(=O)[C@H](C(C)C)NC(=O)[C@H](CC(=O)O)NC(=O)CN(C)C(=O)[C@H](CC(C)C)N(C)C(=O)[C@H](Cc2ccccc2)N(C)C(=O)[C@H](Cc2ccccc2)NC(=O)CSC[C@@H](C(=O)NCC(N)=O)NC1=O` [Example 3136] (HELM PEPTIDE1{[O=C(C[*:3])[*:2]].F.[meF].[meL].[Sar].D.V.[meF].Y.[Sar].W.Y.L.C.G.[am]}$PEPTIDE1,PEPTIDE1,1:R3-14:R3$$$V2.0), the concentration for half-maximal inhibition (IC50) on Human PD-L1/PD-1 lay within 6.76 to 30.3 nM; in assay [1] (setting [3]) it was 4.78 to 72.9 nM.
For `CCCC[C@H]1C(=O)N(C)[C@@H](CCCC)C(=O)N[C@@H](CCN)C(=O)N[C@H](C(=O)NCC(N)=O)CSCC(=O)N[C@@H](Cc2ccc(O)cc2)C(=O)N(C)[C@@H](C)C(=O)N[C@@H](CCN)C(=O)N2CCC[C@H]2C(=O)N[C@@H](Cc2c[nH]cn2)C(=O)N[C@@H](CCC(=O)O)C(=O)N2C[C@H](O)C[C@H]2C(=O)N[C@@H](Cc2c[nH]c3ccccc23)C(=O)N[C@@H](C(C)C)C(=O)N[C@@H](Cc2c[nH]c3ccccc23)C(=O)N1C` [Example 5091] ({CH2CO}-Y[NMeA][Dab]PHE[Hyp]WVW[NMeNle][NMeNle][Dab]CG-NH2; thioether N-14), the values for the half-inhibitory concentration (IC50) (at Human PD-L1/PD-1; in assay [1] (setting [2])) were 6.76 to 30.3 nM and 4.78 to 72.9 nM, respectively.
Regarding `CCCC[C@H]1C(=O)N(C)CC(=O)N[C@@H](CC(=O)O)C(=O)N[C@@H](C(C)C)C(=O)N(C)[C@@H](Cc2ccccc2)C(=O)N[C@@H](Cc2ccc(O)cc2)C(=O)N(C)CC(=O)N[C@@H](Cc2csc3ccccc23)C(=O)N[C@@H](Cc2ccc(O)cc2)C(=O)N[C@@H](CCC(=O)O)C(=O)N[C@H](C(=O)NCC(N)=O)CSCC(=O)N[C@@H](Cc2ccccc2)C(=O)N(C)[C@@H](Cc2ccccc2)C(=O)N1C` [Example 3074] ({CH2CO}-F[NMeF][NMeNle][Sar]DV[NMeF]Y[Sar][Bta]YECG-NH2; thioether N-13), the IC50 on Human PD-L1/PD-1 is 6.76 to 30.3 nM; in assay [1] (setting [3]), 4.78 to 72.9 nM.
Consider `CCCC[C@H]1C(=O)N[C@@H](CCCNC(=N)N)C(=O)NC(C(=O)NCC(N)=O)CSCC(=O)N[C@@H](Cc2ccc(O)cc2)C(=O)N(C)[C@@H](C)C(=O)N[C@@H](CC(N)=O)C(=O)N2CCC[C@H]2C(=O)N[C@@H](Cc2cnc[nH]2)C(=O)N[C@@H](CO)C(=O)N2C[C@H](O)C[C@H]2C(=O)N[C@@H](Cc2c[nH]c3ccccc23)C(=O)N[C@@H](CO)C(=O)N[C@@H](Cc2csc3ccccc23)C(=O)N(C)[C@@H](CCSC)C(=O)N1C` (stereo partly shown) [Example 9114] ({CH2CO}-Y[NMeA]NPHS[Hyp]WS[Bta][NMeM][NMeNle]R[ξC]G-NH2; thioether N-14), for which the IC50 lay within 6.76 to 30.3 nM at Human PD-L1/PD-1 and 4.78 to 72.9 nM in assay [1] (setting [2]).
The corresponding values for `CCCC[C@H]1C(=O)N(C)[C@@H](CCCC)C(=O)N[C@@H](CN)C(=O)N[C@H](C(=O)NCC(N)=O)CSCC(=O)N[C@@H](Cc2ccc(O)cc2)C(=O)N(C)[C@@H](C)C(=O)N[C@@H](CC(N)=O)C(=O)N2CCC[C@H]2C(=O)N[C@@H](CN)C(=O)N[C@@H](CC(C)C)C(=O)N2C[C@H](O)C[C@H]2C(=O)N[C@@H](Cc2c[nH]c3ccccc23)C(=O)N[C@@H](CCN)C(=O)N[C@@H](Cc2c[nH]c3ccccc23)C(=O)N1C` [Example 5059] ({CH2CO}-Y[NMeA]NP[Dap]L[Hyp]W[Dab]W[NMeNle][NMeNle][Dap]CG-NH2; thioether N-14) are 0.385 to 6.74 nM and 4.78 to 72.9 nM.
Taken in the same sequence, the figures for `CCCC[C@H]1C(=O)N(C)[C@@H](CCCC)C(=O)N[C@@H](CCCCN)C(=O)N[C@H](C(=O)NCC(N)=O)CSCC(=O)N[C@@H](Cc2ccc(O)cc2)C(=O)N(C)[C@@H](C)C(=O)N[C@@H](CC(=O)O)C(=O)N2CCC[C@H]2C(=O)N[C@@H](Cc2c[nH]cn2)C(=O)N[C@@H](CCC(N)=O)C(=O)N2C[C@H](O)C[C@H]2C(=O)N[C@@H](Cc2c[nH]c3ccccc23)C(=O)N[C@@H](CO)C(=O)N[C@@H](Cc2c[nH]c3ccccc23)C(=O)N1C` [Example 5120] ({CH2CO}-Y[NMeA]DPHQ[Hyp]WSW[NMeNle][NMeNle]KCG-NH2; thioether N-14) were 0.385 to 6.74 nM and 0.158 to 4.71 nM.
The corresponding values for `CCCC[C@H]1C(=O)N(C)[C@@H](CCCC)C(=O)N[C@@H](CC(C)C)C(=O)N[C@H](C(=O)NCC(N)=O)CSCC(=O)N[C@@H](Cc2ccc(O)cc2)C(=O)N(C)[C@@H](C)C(=O)N[C@@H](CCN)C(=O)N2CCC[C@H]2C(=O)N[C@@H](Cc2c[nH]cn2)C(=O)N[C@@H](CCC(=O)O)C(=O)N2C[C@H](O)C[C@H]2C(=O)N[C@@H](Cc2c[nH]c3ccccc23)C(=O)N[C@@H](C(C)C)C(=O)N[C@@H](Cc2c[nH]c3ccccc23)C(=O)N1C` [Example 5107] ({CH2CO}-Y[NMeA][Dab]PHE[Hyp]WVW[NMeNle][NMeNle]LCG-NH2; thioether N-14) are 6.76 to 30.3 nM and 4.78 to 72.9 nM.
As for `CCCC[C@H]1C(=O)N(C)[C@@H](CCCC)C(=O)N[C@@H](CCCNC(=N)N)C(=O)N[C@H](C(=O)NCC(N)=O)CSCC(=O)N[C@@H](Cc2ccc(O)cc2)C(=O)N(C)[C@@H](C)C(=O)N[C@@H](CC(N)=O)C(=O)N2CCC[C@H]2C(=O)N[C@@H](Cc2cnc[nH]2)C(=O)N[C@@H](CCC(=O)O)C(=O)N2C[C@H](O)C[C@H]2C(=O)N[C@@H](Cc2c[nH]c3ccccc23)C(=O)N[C@@H](CO)C(=O)N[C@@H](Cc2c[nH]c3ccccc23)C(=O)N1C` [Example 1159] ({CH2CO}-Y[NMeA]NPHE[Hyp]WSW[NMeNle][NMeNle]RCG-NH2; thioether N-14), the half-inhibitory concentration (IC50) on Human PD-L1/PD-1 was in the range of 6.76 to 30.3 nM; in assay [1] (setting [3]), 0.158 to 4.71 nM.
On to `CCCC[C@H]1C(=O)N(C)[C@@H](CCCC)C(=O)N[C@@H](CO)C(=O)NC(C(=O)NCC(N)=O)CSCC(=O)N[C@@H](Cc2ccc(O)cc2)C(=O)N(C)[C@@H](C)C(=O)N[C@@H](CC(N)=O)C(=O)N2CCC[C@H]2C(=O)N[C@@H](Cc2cnc[nH]2)C(=O)N[C@@H](CC(C)C)C(=O)N2C[C@H](O)C[C@H]2C(=O)N[C@@H](Cc2c[nH]c3ccccc23)C(=O)N[C@@H](CO)C(=O)N[C@@H](Cc2c[nH]c3ccccc23)C(=O)N1C` (stereo partly shown) [Example 9029], for which the half-inhibitory concentration (IC50) at Human PD-L1/PD-1 is 6.76 to 30.3 nM; in assay [1] (setting [2]), 0.158 to 4.71 nM.
Consider `CCCC[C@H]1C(=O)N(C)[C@@H](CCCC)C(=O)N[C@@H](C)C(=O)N[C@H](C(=O)NCC(N)=O)CSCC(=O)N[C@@H](Cc2ccc(O)cc2)C(=O)N(C)[C@@H](C)C(=O)N[C@@H](CC(N)=O)C(=O)N2CCC[C@H]2C(=O)N[C@@H](CN)C(=O)N[C@@H](CC(=O)O)C(=O)N2C[C@H](O)C[C@H]2C(=O)N[C@@H](Cc2c[nH]c3ccccc23)C(=O)N[C@@H](CO)C(=O)N[C@@H](Cc2c[nH]c3ccccc23)C(=O)N1C` [Example 1170] ({CH2CO}-Y[NMeA]NP[Dap]D[Hyp]WSW[NMeNle][NMeNle]ACG-NH2; thioether N-14), for which the IC50 was in the range of 0.385 to 6.74 nM at Human PD-L1/PD-1 and 4.78 to 72.9 nM in assay [1] (setting [3]).
Taken in the same sequence, the figures for `CCCC[C@H]1C(=O)N(C)CC(=O)N[C@@H](CC(=O)O)C(=O)N[C@@H](C(C)C)C(=O)N(C)[C@@H](Cc2ccccc2)C(=O)N[C@@H](Cc2ccc(O)cc2)C(=O)N(C)CC(=O)N[C@@H](Cc2c[nH]c3ccccc23)C(=O)N[C@@H](Cc2ccc(F)cc2)C(=O)N[C@@H](CC(C)C)C(=O)N[C@H](C(=O)NCC(N)=O)CSCC(=O)N[C@@H](Cc2ccccc2)C(=O)N(C)[C@@H](Cc2ccccc2)C(=O)N1C` [Example 3076] ({CH2CO}-F[NMeF][NMeNle][Sar]DV[NMeF]Y[Sar]W[Phe(4-F)]LCG-NH2; thioether N-13) were 0.385 to 6.74 nM and 4.78 to 72.9 nM.
As for `CCCC[C@H]1C(=O)N2CCC[C@@H]2C(=O)N[C@@H](CC(=O)O)C(=O)N[C@@H](C(C)C)C(=O)N(C)[C@@H](Cc2ccccc2)C(=O)N[C@@H](Cc2ccc(O)cc2)C(=O)N2CCC[C@@H]2C(=O)N[C@@H](Cc2c[nH]c3ccccc23)C(=O)N[C@@H](Cc2ccc(O)cc2)C(=O)N[C@@H](CC(C)C)C(=O)N[C@H](C(=O)NCC(N)=O)CSCC(=O)N[C@@H](Cc2ccccc2)C(=O)N(C)[C@@H](Cc2ccccc2)C(=O)N1C` [Example 3574] (HELM PEPTIDE1{[O=C(C[*:3])[*:2]].F.[meF].[CCCC[C@@H](C(=O)[*:2])N(C)[*:1]].[dP].D.V.[meF].Y.[dP].W.Y.L.C.G.[am]}$PEPTIDE1,PEPTIDE1,1:R3-14:R3$$$V2.0), the IC50 on Human PD-L1/PD-1 was 6.76 to 30.3 nM; in assay [1] (setting [2]) it was 0.158 to 4.71 nM.

By IC50 is commonly meant the midpoint of a concentration-inhibition curve.

These data come from patent US9850283B2, “Macrocyclic inhibitors of the PD-1/PD-L1 and CD80(B7-1)/PD-L1 protein/protein interactions” (BRISTOL-MYERS SQUIBB COMPANY, priority 2013, dated 2017).
